US7691965B2, “Helical synthetic peptides that stimulate cellular cholesterol efflux” (The Regents of the University of California, priority 2002, dated 2010)
Where a SMILES comes first, the peptide text is derived from it.

Tests used:
[1] = Relative lipid binding affinity by surface balance technique (monolayer exclusion pressure); assay type: physicochemical; details: surface balance technique
From the text: Relative Lipid Binding Affinity, Hydrophobicity, and Amphiphilicity of Synthetic Peptides—In some experiments, the relative lipid binding affinity of unique peptides was quantified using a surface balance technique (Gillotte, K L. et al., J. Biol. Chem., 274:2021-2028 (1999)). For routine analyses, a turbid solution of dimyristoylphosphatidylcholine (DMPC) was used to assess the relative capacity of synthetic peptides to solubilize phospholipid as described (Palgunachari, M. N. et al., Arterioscler. Thromb. Vasc. Biol., 16:328-338 (1996); McLean, L. R. and Hagaman, K. A., Biochim. Biophys. Acta, 1167:289-295 (1993)). The DMPC was used at a final concentration of 0.08 mg/ml in 10 mM Tris-saline (pH 7.4). The final weight ratio of peptides relative to DMPC was 1:1. The absorbance (400 nm) of samples was monitored continuously over a period of 30 min at 25° C. Hydrophobicity of helical peptides was calculated using the consensus scale (Eisenberg D., Annu. Rev. Biochem., 53:593-623 (1984)). The hydrophobic moment (kcal/mol) of synthetic peptides, which is a measure of helix amphiphilicity, was calculated as described by Eisenberg et al. (Eisenberg, D. et al., Nature, 299:371-374 (1982)).

ABCA1 [2] = molecular target: T1, ABCA1 (Mus musculus, UniProt P41233); experiment: Cellular cholesterol efflux from [3H]cholesterol-labeled J774 macrophages with and without cAMP analog; assay type: cell-based; set-up: endogenous in cells; host or cells: J774 macrophages treated with a cAMP analog (CPT-cAMP or 8-bromo-cAMP); details: lipid-free acceptor, J774 macrophages with vs without cAMP analog
From the text: Suitable cholesterol efflux assays are described in, e.g., Bielicki, J. K and Oda, M. N., Biochemistry, 41:2089-2096 (2002); Jia, Z. et al., Biochem. Biophys. Res. Common., 297:206-213 (2002). In some embodiments, a polypeptide known to mediate cholesterol efflux (e.g., helix 9/10 of Apo A-I) is used to screen for additional mediators of cholesterol efflux in a cell based assay. For example, cell lines in which cholesterol efflux can be enhanced using a cAMP analog that up-regulates ABCA1 protein expression (e.g., J774 macrophages) can conveniently be used to assess the ability of an Apo A-I, Apo A-II, Apo A-IV, Apo E, Apo C-I, Apo C-II, Apo C-III, or Serum Amyloid A peptide to mediate cholesterol efflux. The cells are incubated with labeled cholesterol (e.g., [^3H]cholesterol) under conditions appropriate for cholesterol uptake by the cells. cAMP or cAMP analogs (e.g., CPT-cAMP) is incubated with the cells for a suitable time before the initiation of cellular cholesterol efflux, i.e., prior to contacting the cells with helix 9/10 of Apo A-I or the test compound. Measurement of labeled cholesterol appearing in the medium is used to determine the cholesterol efflux mediating activity of the test compound.
Cellular Cholesterol Efflux Protocol—J774 macrophages were used to assess the cholesterol efflux properties of synthetic amphipathic α-helical peptides (Bielicki, J. K and Oda, M. N., Biochemistry, 41:2089-2096 (2002); Jia, Z. et al., Biochem. Biophys. Res. Common., 297:206-213 (2002)). This cell line was chosen because cholesterol efflux can be enhanced using a cAMP analog that up-regulates ABCA1 protein expression. The cells were seeded onto 24-well culture plates and labeled for 48 h with [^3H]cholesterol in RPMI 1640 supplemented with 1% fetal bovine serum. The cAMP analog CPT-cAMP was added (0.3 mM, final concentration) to the cells at least 12 h before the initiation of cellular cholesterol efflux. Synthetic peptides in lipid-free form were added to cells in serum-free RPMI. The lipid-free form of full-length recombinant apoA-I was used as a positive control to define apparent ABCA1-dependent cholesterol efflux in the presence and absence of cAMP stimulation. Efflux results were expressed as a percentage of the initial cellular [^3H] appearing in the medium as a function of time subtracting the background efflux obtained using serum-free medium alone.

ABCA1 [3] = molecular target: T1, ABCA1; experiment: ABCA1 stabilization: immunoblot of ABCA1 protein in J774 macrophage membranes after cAMP withdrawal; assay type: cell-based; set-up: J774 macrophages were used to assess relative ABCA1 protein levels in the presence and absence of synthetic peptides; endogenous in cells; host or cells: J774 macrophages treated with a cAMP analog (CPT-cAMP or 8-bromo-cAMP); details: 20 μg/ml peptide, 6 h without cAMP, J774 macrophages
Method: J774 macrophages were incubated (18 h) with 0.5 mM 8-bromo-cAMP in medium containing 0.1% bovine serum albumin to up-regulate ABCA1 protein expression. Washed cells were subsequently exposed for 6 h to bovine serum albumin medium with (+) or without (−) 8-bromo-cAMP and the indicated synthetic peptides (20 μg/ml). None refers to no peptides. The cellular membrane content of ABCA1 protein was measured by immunoblot analysis.
ABCA1 Stabilization—J774 macrophages were used to assess relative ABCA1 protein levels in the presence and absence of synthetic peptides. Cells were grown in 10% fetal bovine serum, extensively rinsed, and incubated (18 h) with Dulbecco's modified Eagle's medium containing 0.1% bovine serum albumin plus the cAMP analog 8-bromo-cAMP. Cells were next exposed to synthetic peptides or serum-free medium in the absence of the cAMP stimulus to evaluate whether ABCA1 protein was stabilized or degraded. Relative levels of ABCA1 protein were assessed by immunoblot analysis of cell membranes (Oram, J. F. et al., J. Biol. Chem., 278:52379-52385 (2003)). ABCA1 was visualized using an enhanced chemiluminescence detection assay.
To assess ABCA1 stabilization, J774 macrophages were treated with a cAMP analog to up-regulate ABCA1 protein expression and then incubated for 6 h without cAMP. In the absence of inducer, ABCA1 protein is rapidly degraded in these cells (FIG. 9). […] Thus, it appears that the helical combinations that stimulate cholesterol efflux also stabilize the ABCA1 transporter.

T1 sequence (P41233 whole entry): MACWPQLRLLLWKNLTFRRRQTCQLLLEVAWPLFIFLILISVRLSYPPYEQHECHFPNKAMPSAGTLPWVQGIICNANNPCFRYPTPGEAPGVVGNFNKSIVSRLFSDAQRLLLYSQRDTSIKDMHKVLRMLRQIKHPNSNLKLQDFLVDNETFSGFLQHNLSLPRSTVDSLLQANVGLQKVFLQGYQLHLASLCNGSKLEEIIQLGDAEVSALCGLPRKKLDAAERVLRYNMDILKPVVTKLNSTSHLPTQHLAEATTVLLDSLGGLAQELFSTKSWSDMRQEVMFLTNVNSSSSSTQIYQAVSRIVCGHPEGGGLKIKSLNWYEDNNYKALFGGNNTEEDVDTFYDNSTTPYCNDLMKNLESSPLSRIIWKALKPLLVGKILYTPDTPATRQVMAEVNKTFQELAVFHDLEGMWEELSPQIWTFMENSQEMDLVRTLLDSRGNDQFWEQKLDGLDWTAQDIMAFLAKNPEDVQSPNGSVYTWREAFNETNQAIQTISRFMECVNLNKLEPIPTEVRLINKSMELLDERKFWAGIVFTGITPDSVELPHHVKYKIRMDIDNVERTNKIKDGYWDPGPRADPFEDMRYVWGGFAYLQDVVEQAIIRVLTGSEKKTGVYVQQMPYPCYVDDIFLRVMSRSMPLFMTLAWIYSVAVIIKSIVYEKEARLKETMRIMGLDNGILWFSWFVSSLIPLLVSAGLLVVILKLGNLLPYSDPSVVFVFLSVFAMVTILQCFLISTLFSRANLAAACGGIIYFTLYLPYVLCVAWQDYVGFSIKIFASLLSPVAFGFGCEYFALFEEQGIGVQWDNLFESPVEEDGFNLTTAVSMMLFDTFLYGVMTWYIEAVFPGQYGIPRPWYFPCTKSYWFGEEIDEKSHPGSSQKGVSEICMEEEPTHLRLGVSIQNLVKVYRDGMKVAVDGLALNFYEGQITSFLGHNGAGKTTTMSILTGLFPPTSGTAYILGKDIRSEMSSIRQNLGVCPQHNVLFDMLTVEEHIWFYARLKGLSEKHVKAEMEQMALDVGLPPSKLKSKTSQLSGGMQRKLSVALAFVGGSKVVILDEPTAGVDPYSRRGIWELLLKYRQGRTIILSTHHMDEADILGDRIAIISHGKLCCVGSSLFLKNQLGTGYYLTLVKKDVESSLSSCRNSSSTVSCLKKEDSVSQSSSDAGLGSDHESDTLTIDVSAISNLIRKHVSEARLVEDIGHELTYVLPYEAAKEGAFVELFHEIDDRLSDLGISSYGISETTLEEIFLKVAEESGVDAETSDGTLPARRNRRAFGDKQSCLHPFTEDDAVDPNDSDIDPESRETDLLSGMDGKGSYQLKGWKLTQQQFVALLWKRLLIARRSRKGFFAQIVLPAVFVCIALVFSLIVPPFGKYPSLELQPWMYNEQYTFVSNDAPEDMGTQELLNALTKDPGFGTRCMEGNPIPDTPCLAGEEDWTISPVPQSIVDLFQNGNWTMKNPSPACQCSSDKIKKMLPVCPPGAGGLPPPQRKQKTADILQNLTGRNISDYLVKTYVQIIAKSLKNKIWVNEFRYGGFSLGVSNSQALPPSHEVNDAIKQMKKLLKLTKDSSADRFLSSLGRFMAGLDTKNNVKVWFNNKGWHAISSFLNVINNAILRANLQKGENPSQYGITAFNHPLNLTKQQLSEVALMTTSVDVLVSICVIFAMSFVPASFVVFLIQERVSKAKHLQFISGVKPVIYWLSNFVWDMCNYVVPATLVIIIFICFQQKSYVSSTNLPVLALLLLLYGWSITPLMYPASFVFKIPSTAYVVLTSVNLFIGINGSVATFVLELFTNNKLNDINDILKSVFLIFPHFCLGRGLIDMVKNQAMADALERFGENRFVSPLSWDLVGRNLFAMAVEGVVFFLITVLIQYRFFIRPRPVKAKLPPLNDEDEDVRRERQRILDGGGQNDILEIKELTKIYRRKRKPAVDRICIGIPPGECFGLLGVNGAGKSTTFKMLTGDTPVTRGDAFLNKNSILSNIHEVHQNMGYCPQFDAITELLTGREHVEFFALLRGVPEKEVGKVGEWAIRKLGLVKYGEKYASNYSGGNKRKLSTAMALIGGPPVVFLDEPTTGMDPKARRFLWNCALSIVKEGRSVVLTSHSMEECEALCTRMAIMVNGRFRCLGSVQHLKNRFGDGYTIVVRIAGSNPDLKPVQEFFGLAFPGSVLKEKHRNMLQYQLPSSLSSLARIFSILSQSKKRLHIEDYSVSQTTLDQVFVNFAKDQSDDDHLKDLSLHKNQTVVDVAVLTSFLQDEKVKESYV

## CSCC[C@H](NC(=O)[C@H](CCC(=O)O)NC(=O)[C@H](CCC(N)=O)NC(=O)[C@H](CCCNC(=N)N)NC(=O)[C@H](CC(C)C)NC(=O)CNC(=O)[C@H](CCC(=O)O)NC(=O)[C@@H](NC(=O)[C@H](CCC(=O)O)NC(=O)[C@H](CCCCN)NC(=O)[C@H](CCC(=O)O)NC(=O)[C@H](CC(C)C)NC(=O)[C@H](CC(N)=O)NC(=O)[C@H](CC(=O)O)NC(=O)[C@H](Cc1c[nH]c2ccccc12)NC(=O)[C@H](Cc1ccccc1)NC(=O)[C@H](CCC(=O)O)NC(=O)[C@H](CCC(N)=O)NC(=O)[C@@H](NC(=O)[C@@H](NC(=O)[C@@H]1CCCN1C(C)=O)C(C)C)[C@@H](C)O)[C@@H](C)O)C(=O)N[C@@H](CO)C(=O)N1CCC[C@H]1C(=O)N[C@@H](C)C(=O)N[C@@H](CC(C)C)C(=O)N[C@@H](CCC(=O)O)C(=O)N[C@@H](CC(=O)O)C(=O)N[C@@H](CC(C)C)C(=O)N[C@@H](CCCNC(=N)N)C(=O)N[C@@H](CCC(N)=O)C(=O)NCC(=O)N[C@@H](CC(C)C)C(=O)N[C@@H](CC(C)C)C(N)=O [Helical peptide 2/9] (Ac-PVTQEFWDNLEKETEGLRQEMSPALEDLRQGLL-NH2)
[1]
  Monolayer exclusion pressure: 19 dynes/cm
ABCA1 [2]
  ABCA1-dependent cholesterol efflux (result in words): failed to stimulate ABCA1-dependent cholesterol efflux

## CSCC[C@H](NC(=O)[C@H](CCC(=O)O)NC(=O)[C@H](CCC(N)=O)NC(=O)[C@H](CCCNC(=N)N)NC(=O)[C@H](CC(C)C)NC(=O)CNC(=O)[C@H](CCC(=O)O)NC(=O)[C@@H](NC(=O)[C@H](CCC(=O)O)NC(=O)[C@H](CCCCN)NC(=O)[C@H](CCC(=O)O)NC(=O)[C@H](CC(C)C)NC(=O)[C@H](CC(N)=O)NC(=O)[C@H](CC(=O)O)NC(=O)[C@H](Cc1c[nH]c2ccccc12)NC(=O)[C@H](Cc1ccccc1)NC(=O)[C@H](CCC(=O)O)NC(=O)[C@H](CCC(N)=O)NC(=O)[C@@H](NC(=O)[C@@H](NC(=O)[C@@H]1CCCN1C(C)=O)C(C)C)[C@@H](C)O)[C@@H](C)O)C(=O)N[C@@H](CO)C(N)=O [Helical peptide 2] (Ac-PVTQEFWDNLEKETEGLRQEMS-NH2)
[1]
  Monolayer exclusion pressure: 17 dynes/cm

## CSCC[C@H](NC(=O)[C@H](CCC(=O)O)NC(=O)[C@H](CCC(=O)O)NC(=O)[C@H](CCC(N)=O)NC(=O)[C@H](Cc1c[nH]c2ccccc12)NC(=O)[C@H](CCCCN)NC(=O)[C@H](CCCCN)NC(=O)[C@H](CCC(N)=O)NC(=O)[C@H](Cc1ccccc1)NC(=O)[C@H](CC(=O)O)NC(=O)[C@H](CC(=O)O)NC(=O)[C@H](CC(C)C)NC(=O)[C@H](Cc1ccc(O)cc1)NC(=O)[C@@H]1CCCN1C(C)=O)C(=O)N[C@@H](CCC(=O)O)C(=O)N[C@@H](CC(C)C)C(=O)N[C@@H](Cc1ccc(O)cc1)C(=O)N[C@@H](CCCNC(=N)N)C(=O)N[C@@H](CCC(N)=O)C(=O)N[C@@H](CCCCN)C(=O)N[C@H](C(=O)N[C@@H](CCC(=O)O)C(=O)N1CCC[C@H]1C(=O)N[C@@H](C)C(=O)N[C@@H](CC(C)C)C(=O)N[C@@H](CCC(=O)O)C(=O)N[C@@H](CC(=O)O)C(=O)N[C@@H](CC(C)C)C(=O)N[C@@H](CCCNC(=N)N)C(=O)N[C@@H](CCC(N)=O)C(=O)NCC(=O)N[C@@H](CC(C)C)C(=O)N[C@@H](CC(C)C)C(N)=O)C(C)C [Helical peptide 4/9] (Ac-PYLDDFQKKWQEEMELYRQKVEPALEDLRQGLL-NH2)
ABCA1 [2]
  ABCA1-dependent cholesterol efflux (result in words): failed to mediate ABCA1-dependent cholesterol efflux

## CC(=O)N1CCC[C@H]1C(=O)N[C@@H](C)C(=O)N[C@@H](CC(C)C)C(=O)N[C@@H](CCC(=O)O)C(=O)N[C@@H](CC(=O)O)C(=O)N[C@@H](CC(C)C)C(=O)N[C@@H](CCCNC(=N)N)C(=O)N[C@@H](CCC(N)=O)C(=O)NCC(=O)N[C@@H](CC(C)C)C(=O)N[C@@H](CC(C)C)C(N)=O [Helical peptide 9] (Ac-PALEDLRQGLL-NH2)
ABCA1 [3]
  ABCA1 stabilization (result in words): failed to prevent ABCA1 degradation
ABCA1 [2]
  ABCA1-dependent cholesterol efflux (result in words): failed to stimulate ABCA1-dependent cholesterol efflux

## CC(=O)N1CCC[C@H]1C(=O)N[C@H](C(=O)N[C@@H](CC(C)C)C(=O)N[C@@H](CCC(=O)O)C(=O)N[C@@H](CO)C(=O)N[C@@H](Cc1ccccc1)C(=O)N[C@@H](CCCCN)C(=O)N[C@H](C(=O)N[C@@H](CO)C(=O)N[C@@H](Cc1ccccc1)C(=O)N[C@@H](CC(C)C)C(=O)N[C@@H](CO)C(=O)N[C@@H](C)C(=O)N[C@@H](CC(C)C)C(=O)N[C@@H](CCC(=O)O)C(=O)N[C@@H](CCC(=O)O)C(=O)N[C@@H](Cc1ccc(O)cc1)C(=O)N[C@H](C(=O)N[C@@H](CCCCN)C(=O)N[C@@H](CCCCN)C(=O)N[C@@H](CC(C)C)C(=O)N[C@@H](CC(N)=O)C(=O)N1CCC[C@H]1C(=O)N[C@@H](C)C(=O)N[C@@H](CC(C)C)C(=O)N[C@@H](CCC(=O)O)C(=O)N[C@@H](CC(=O)O)C(=O)N[C@@H](CC(C)C)C(=O)N[C@@H](CCCNC(=N)N)C(=O)N[C@@H](CCC(N)=O)C(=O)NCC(=O)N[C@@H](CC(C)C)C(=O)N[C@@H](CC(C)C)C(N)=O)[C@@H](C)O)C(C)C)C(C)C [Helical peptide 10/9] (Ac-PVLESFKVSFLSALEEYTKKLNPALEDLRQGLL-NH2)
ABCA1 [3]
  ABCA1 stabilization (result in words): failed to prevent ABCA1 degradation
ABCA1 [2]
  ABCA1-dependent cholesterol efflux (result in words): failed to stimulate ABCA1-dependent cholesterol efflux

B1: ARMEEMGSRTRDRLDEVKEQVAEVRAKLEEQAQQIRLQAEAFQARLKSWFEPLVEDMQRQWAGLVEKVQAAVGTSAAPVPSDNH (protein)
chain: ARMEEMGSRTRDRLDEVKEQVAEVRAKLEEQAQQIRLQAEAFQARLKSWFEPLVEDMQRQWAGLVEKVQAAVGTSAAPVPSDNH
modifications: apolipoprotein Apo E, C-terminal domain (aa216-299)
notes: C-terminal domain, amino acid residues 216-299 of Apo E
ABCA1 [2]; listed as C-terminal domain of apoE
  ABCA1-dependent cholesterol efflux (result in words): potent stimulator of cholesterol efflux
ABCA1 [2]; listed as CT domain
  ABCA1-dependent cholesterol efflux (result in words): more effective than full-length apoE3
